In the NIST ThermoML archive (doi:10.1021/je100757w):

Assay: xn = mol fraction of the nth substance listed
Settings: for surface tension liquid-gas: Ring tensiometer; for mass density: 101.3 kPa, Liquid

COCCOCCOCCOCCOC [2,5,8,11,14-pentaoxapentadecane] + O
Settings	mass density [kg/m3]	surface tension liquid-gas [mN/m]
298.15 K, x1 = 0.0016	–	50.16
298.15 K, x1 = 0.002	–	48.89
298.15 K, x1 = 0.0026	–	47.04
298.15 K, x1 = 0.0031	–	46.37
298.15 K, x1 = 0.0092	–	43.11
298.15 K, x1 = 0.0142	1011.13	–
298.15 K, x1 = 0.0174	–	41.23
298.15 K, x1 = 0.0283	–	40.1
298.15 K, x1 = 0.057	–	39.54
298.15 K, x1 = 0.0746	–	38.88
298.15 K, x1 = 0.0747	1035.25	–
298.15 K, x1 = 0.1026	–	38.65
298.15 K, x1 = 0.1452	1036.72	–
298.15 K, x1 = 0.1497	–	37.66
298.15 K, x1 = 0.2264	–	36.29
298.15 K, x1 = 0.2309	1031.3	–
298.15 K, x1 = 0.2862	–	35.79
298.15 K, x1 = 0.2974	1026.41	–
298.15 K, x1 = 0.4065	1020.2	–
298.15 K, x1 = 0.4268	–	35.09
298.15 K, x1 = 0.5085	1016.34	–
298.15 K, x1 = 0.5414	–	34.92
298.15 K, x1 = 0.5863	1014.23	–
298.15 K, x1 = 0.6144	–	34.46
298.15 K, x1 = 0.6788	1012.16	–
298.15 K, x1 = 0.787	–	34.2
298.15 K, x1 = 0.8139	1009.47	–
298.15 K, x1 = 0.8286	–	34.19
298.15 K, x1 = 0.854	1008.76	–
298.15 K, x1 = 0.9196	–	33.91
298.15 K, x1 = 0.9569	1007.43	–
298.15 K, x1 = 1	1007.26	33.74
308.15 K, x1 = 0.0014	–	51
308.15 K, x1 = 0.0023	–	46.99
308.15 K, x1 = 0.0032	–	45.45
308.15 K, x1 = 0.004	–	44.21
308.15 K, x1 = 0.009	–	42.87
308.15 K, x1 = 0.0142	1006.56	–
308.15 K, x1 = 0.0175	–	39.9
308.15 K, x1 = 0.0275	–	39.08
308.15 K, x1 = 0.0539	–	38.34
308.15 K, x1 = 0.0715	–	37.36
308.15 K, x1 = 0.0747	1027.26	–
308.15 K, x1 = 0.099	–	37.28
308.15 K, x1 = 0.1452	1027.67	–
308.15 K, x1 = 0.1478	–	35.51
308.15 K, x1 = 0.2212	–	34.95
308.15 K, x1 = 0.2309	1022.01	–
308.15 K, x1 = 0.2974	1017.12	–
308.15 K, x1 = 0.3074	–	34.22
308.15 K, x1 = 0.4065	1010.92	–
308.15 K, x1 = 0.4252	–	33.85
308.15 K, x1 = 0.5085	1007.06	–
308.15 K, x1 = 0.5523	–	33.58
308.15 K, x1 = 0.5863	1004.92	–
308.15 K, x1 = 0.6404	–	33.32
308.15 K, x1 = 0.6788	1002.83	–
308.15 K, x1 = 0.7835	–	33.05
308.15 K, x1 = 0.8139	1000.17	–
308.15 K, x1 = 0.814	–	32.88
308.15 K, x1 = 0.854	999.47	–
308.15 K, x1 = 0.9479	–	32.64
308.15 K, x1 = 0.9569	998.16	–
308.15 K, x1 = 1	997.98	32.45
318.15 K, x1 = 0.0013	–	58.46
318.15 K, x1 = 0.0019	–	54.2
318.15 K, x1 = 0.0024	–	51.29
318.15 K, x1 = 0.0033	–	47.59
318.15 K, x1 = 0.0098	–	42.27
318.15 K, x1 = 0.0142	1001.29	–
318.15 K, x1 = 0.0187	–	40.41
318.15 K, x1 = 0.0314	–	40.39
318.15 K, x1 = 0.0584	–	38.25
318.15 K, x1 = 0.0747	1019.04	–
318.15 K, x1 = 0.0748	–	37.24
318.15 K, x1 = 0.1022	–	36.5
318.15 K, x1 = 0.1452	1018.51	–
318.15 K, x1 = 0.1482	–	35.37
318.15 K, x1 = 0.2219	–	33.81
318.15 K, x1 = 0.2309	1012.58	–
318.15 K, x1 = 0.2974	1007.72	–
318.15 K, x1 = 0.3152	–	33.3
318.15 K, x1 = 0.4065	1001.56	–
318.15 K, x1 = 0.4328	–	32.94
318.15 K, x1 = 0.5085	997.73	–
318.15 K, x1 = 0.5259	–	32.75
318.15 K, x1 = 0.5863	995.58	–
318.15 K, x1 = 0.5974	–	32.47
318.15 K, x1 = 0.6788	993.48	–
318.15 K, x1 = 0.7667	–	32.22
318.15 K, x1 = 0.8139	990.83	–
318.15 K, x1 = 0.8249	–	32.05
318.15 K, x1 = 0.854	990.15	–
318.15 K, x1 = 0.9324	–	31.94
318.15 K, x1 = 0.9569	988.89	–
318.15 K, x1 = 1	988.72	31.71
